Values quoted from earlier work as cited in patent US20080069871A1, “H[…] DETERRENT DELIVERY SYSTEM” (priority 2006, published 2008).

Details: stated as reason for use as model drug

## Cc1ncc([N+](=O)[O-])n1CCO [metronidazole, Metronidazole]
  solubility in water and aqueous ethanol solutions: highly soluble
